Target: human Cat S (Homo sapiens, UniProt P25774)
Experiment: Cathepsin enzyme inhibition assay (fluorogenic peptide substrate cleavage)
Assay type: biochemical
Settings: human Cat S 1 nM; substrate Z-Val-Val-Arg-AMC 20 μM; pH 6.5; fluorescence over 20 minutes
Summary of the method: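 IC50 values derived from fluorescence increase (ex 360 nm, em 465 nm) monitored for 20 minutes after substrate addition. Enzyme held at 1 nM with 20 μM Z-Val-Val-Arg-AMC, in pH 6.5 potassium phosphate buffer containing DTT, EDTA and Triton X-100.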

Chain of human Cat S (P25774 115-331): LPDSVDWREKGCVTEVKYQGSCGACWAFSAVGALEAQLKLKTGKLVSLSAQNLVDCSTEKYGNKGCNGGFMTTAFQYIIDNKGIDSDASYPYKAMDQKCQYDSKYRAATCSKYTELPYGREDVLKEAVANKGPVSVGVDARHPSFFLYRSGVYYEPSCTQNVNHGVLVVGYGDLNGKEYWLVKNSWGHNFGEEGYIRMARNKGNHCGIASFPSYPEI

Compound	IC50 [nM]
N#CC1(NC(=O)[C@@H]2C[C@@H](S(=O)(=O)c3ccccc3)C[C@H]2C(=O)N2[C@@H]3CC[C@H]2COC3)CC1 [Example 18, (1R,2R,4R)-4-Benzenesulfonyl-2-((1R,5S)-3-oxa-8-aza-bicyclo[3.2.1]octane-8-carbonyl)-cyclopentanecarboxylic acid (1-cyano-cyclopropyl)-amide]	2
CC1CCN(C(=O)[C@@H]2C[C@H](S(=O)(=O)c3ccccc3)C[C@H]2C(=O)NC2(C#N)CC2)CC1 [Example 19, (1R,2R,4R)-4-Benzenesulfonyl-2-(4-methyl-piperidine-1-carbonyl)-cyclopentanecarboxylic acid (1-cyano-cyclopropyl)-amide]	0.5
N#CC1(NC(=O)[C@@H]2C[C@@H](S(=O)(=O)c3ccccc3)C[C@H]2C(=O)N2CCS(=O)(=O)CC2)CC1 [Example 20, (1R,2R,4R)-4-Benzenesulfonyl-2-(1,1-dioxo-1-thiomorpholine-4-carbonyl)-cyclopentanecarboxylic acid (1-cyano-cyclopropyl)-amide]	4.3
CCOC1CN(C(=O)[C@@H]2C[C@H](S(=O)(=O)c3ccccc3)C[C@H]2C(=O)NC2(C#N)CC2)C1 [Example 21, (1R,2R,4R)-4-Benzenesulfonyl-2-(3-ethoxy-azetidine-1-carbonyl)-cyclopentanecarboxylic acid (1-cyano-cyclopropyl)-amide]	4.9
COC1CN(C(=O)[C@@H]2C[C@H](S(=O)(=O)c3ccccc3)C[C@H]2C(=O)NC2(C#N)CC2)C1 [Example 22, (1R,2R,4R)-4-Benzenesulfonyl-2-(3-methoxy-azetidine-1-carbonyl)-cyclopentanecarboxylic acid (1-cyano-cyclopropyl)-amide]	5.5
CCN(CC)C(=O)[C@@H]1C[C@H](S(=O)(=O)c2ccccc2)C[C@H]1C(=O)NC1(C#N)CC1 [Example 25, (1R,2R,4R)-4-Benzenesulfonyl-cyclopentane-1,2-dicarboxylic acid 1-[(1-cyano-cyclopropyl)-amide]2-diethylamide]	2.6
CN(C)C(=O)[C@@H]1C[C@H](S(=O)(=O)c2ccccc2)C[C@H]1C(=O)NC1(C#N)CC1 [Example 27, (1R,2R,4R)-4-Benzenesulfonyl-cyclopentane-1,2-dicarboxylic acid 1-[(1-cyano-cyclopropyl)-amide]2-dimethylamide]	6.2
CC(C)(C)NC(=O)[C@@H]1C[C@H](S(=O)(=O)c2ccccc2)C[C@H]1C(=O)NC1(C#N)CC1 [Example 28, (1R,2R,4S)-4-Benzenesulfonyl-cyclopentane-1,2-dicarboxylic acid 1-tert-butylamide 2-[(1-cyano-cyclopropyl)-amide]]	25.5
CNC(=O)[C@@H]1C[C@H](S(=O)(=O)c2ccccc2)C[C@H]1C(=O)NC1(C#N)CC1 [Example 29, (1R,2R,4S)-4-Benzenesulfonyl-cyclopentane-1,2-dicarboxylic acid 1-[(1-cyano-cyclopropyl)-amide]2-methylamide]	72.5
N#CC1(NC(=O)[C@@H]2C[C@@H](S(=O)(=O)c3ccccc3)C[C@H]2C(=O)Nc2ccc(F)cc2)CC1 [Example 42, (1R,2R,4S)-4-Benzenesulfonyl-cyclopentane-1,2-dicarboxylic acid 1-[(1-cyano-cyclopropyl)-amide]2-[(4-fluoro-phenyl)-amide]]	25.5
N#CC1(NC(=O)[C@@H]2C[C@@H](S(=O)(=O)c3ccc(Br)cc3C(F)(F)F)C[C@H]2C(=O)N2CC(F)(F)C2)CC1 [Example 117, (1R,2R,4R)-4-(4-Bromo-2-trifluoromethyl-benzenesulfonyl)-2-(3,3-difluoro-azetidine-1-carbonyl)-cyclopentanecarboxylic acid (1-cyano-cyclopropyl)-amide]	1.1
N#CC1(NC(=O)[C@@H]2C[C@@H](S(=O)(=O)c3ccc(F)cc3C(F)(F)F)C[C@H]2C(=O)N2CC(F)(F)C2)CC1 [Example 118, (1R,2R,4R)-2-(3,3-Difluoro-azetidine-1-carbonyl)-4-(4-fluoro-2-trifluoromethyl-benzenesulfonyl)-cyclopentanecarboxylic acid (1-cyano-cyclopropyl)-amide]	3
N#CC1(NC(=O)[C@@H]2C[C@@H](S(=O)(=O)c3ccc(F)cc3Cl)C[C@H]2C(=O)N2CC(F)(F)C2)CC1 [Example 119, (1R,2R,4R)-4-(2-Chloro-4-fluoro-benzenesulfonyl)-2-(3,3-difluoro-azetidine-1-carbonyl)-cyclopentanecarboxylic acid (1-cyano-cyclopropyl)-amide]	6.1
Cn1cc(-c2ccc(S(=O)(=O)[C@@H]3C[C@@H](C(=O)NC4(C#N)CC4)[C@H](C(=O)N4CC(F)(F)C4)C3)c(C(F)(F)F)c2)cn1 [Example 120, (1R,2R,4R)-2-(3,3-Difluoro-azetidine-1-carbonyl)-4-[4-(1-methyl-1H-pyrazol-4-yl)-2-trifluoromethyl-benzenesulfonyl]-cyclopentanecarboxylic acid (1-cyano-cyclopropyl)-amide]	0.2

Next, values leading:

IC50 [nM]	Compound
1.5	N#CC1(NC(=O)[C@@H]2C[C@@H](S(=O)(=O)c3ccccc3)C[C@H]2C(=O)N2CCCC2)CC1 [Example 23, (1R,2R,4R)-4-Benzenesulfonyl-2-(pyrrolidine-1-carbonyl)-cyclopentanecarboxylic acid (1-cyano-cyclopropyl)-amide]
9.6	N#CC1(NC(=O)[C@@H]2C[C@@H](S(=O)(=O)c3ccccc3)C[C@H]2C(=O)N2CCC2)CC1 [Example 24, (1R,2R,4R)-2-(Azetidine-1-carbonyl)-4-benzenesulfonyl-cyclopentanecarboxylic acid (1-cyan o-cyclopropyl)-amide]
1.5	CN1CCN(C(=O)[C@@H]2C[C@H](S(=O)(=O)c3ccccc3)C[C@H]2C(=O)NC2(C#N)CC2)CC1 [Example 26, (1R,2R,4R)-4-Benzenesulfonyl-2-(4-methyl-piperazine-1-carbonyl)-cyclopentanecarboxylic acid (1-cyano-cyclopropyl)-amide]
0.2	Cc1cc(Cl)ccc1S(=O)(=O)[C@@H]1C[C@@H](C(=O)NC(C#N)c2ccccc2)[C@H](C(=O)N2CCOCC2)C1 (stereo partly drawn) [Example 31, (1R,2R,4R)-4-(4-Chloro-2-methyl-benzenesulfonyl)-2-(morpholine-4-carbonyl)-cyclopentanecarboxylic acid (cyano-phenyl-methyl)-amide]
0.4	Cc1cc(Cl)ccc1S(=O)(=O)[C@@H]1C[C@@H](C(=O)NCC#N)[C@H](C(=O)N2C[C@@H](C)O[C@@H](C)C2)C1 [Example 32, (1R,2R,4R)-4-(4-Chloro-2-methyl-benzenesulfonyl)-2-((2S,6R)-2,6-dimethyl-morpholine-4-carbonyl)-cyclopentanecarboxylic acid cyanomethyl-amide]
1.6	Cc1cc(Cl)ccc1S(=O)(=O)[C@@H]1C[C@@H](C(=O)NCC#N)[C@H](C(=O)N2CCN(C)CC2)C1 [Example 33, (1R,2R,4R)-4-(4-Chloro-2-methyl-benzenesulfonyl)-2-(4-methyl-piperazine-1-carbonyl)-cyclopentanecarboxylic acid cyanomethyl-amide]
2.5	CC(C)(C#N)NC(=O)[C@@H]1C[C@@H](S(=O)(=O)c2ccccc2)C[C@H]1C(=O)N1CCOCC1 [Example 34, (1R,2R,4R)-4-Benzenesulfonyl-2-(morpholine-4-carbonyl)-cyclopentanecarboxylic acid (cyano-dimethyl-methyl)-amide]
4	N#CC1(NC(=O)[C@@H]2C[C@@H](S(=O)(=O)c3ccccc3)C[C@H]2C(=O)N2CCOCC2)CCC1 [Example 35, (1R,2R,4R)-4-Benzenesulfonyl-2-(morpholine-4-carbonyl)-cyclopentanecarboxylic acid (1-cyano-cyclobutyl)-amide]
0.4	N#CCNC(=O)[C@@H]1C[C@@H](S(=O)(=O)c2cccc3ccccc23)C[C@H]1C(=O)N1CCOCC1 [Example 36, (1R,2R,4R)-2-(Morpholine-4-carbonyl)-4-(naphthalene-1-sulfonyl)-cyclopentanecarboxylic acid cyanomethyl-amide]
0.9	N#CCNC(=O)[C@@H]1C[C@@H](S(=O)(=O)c2ccccc2C(F)(F)F)C[C@H]1C(=O)N1CCOCC1 [Example 37, (1R,2R,4R)-2-(Morpholine-4-carbonyl)-4-(2-trifluoromethyl-benzenesulfonyl)-cyclopentanecarboxylic acid cyanomethyl-amide]
533	N#CCNC(=O)[C@@H]1C[C@@H](S(=O)(=O)Cc2ccccc2)C[C@H]1C(=O)N1CCOCC1 [Example 38, (1R,2R,4R)-2-(Morpholine-4-carbonyl)-4-phenylmethanesulfonyl-cyclopentanecarboxylic acid cyanomethyl-amide]
445	CC(C)CS(=O)(=O)[C@@H]1C[C@@H](C(=O)NCC#N)[C@H](C(=O)N2CCOCC2)C1 [Example 39, (1R,2R,4R)-4-(2-Methyl-propane-1-sulfonyl)-2-(morpholine-4-carbonyl)-cyclopentanecarboxylic acid cyanomethyl-amide]
230	N#CCNC(=O)[C@@H]1C[C@@H](S(=O)(=O)CC2CC2)C[C@H]1C(=O)N1CCOCC1 [Example 40, (1R,2R,4R)-4-Cyclopropylmethanesulfonyl-2-(morpholine-4-carbonyl)-cyclopentanecarboxylic acid cyanomethyl-amide]
1300	Cc1cc(Cl)ccc1S(=O)(=O)[C@H]1C[C@@H](C(=O)N2CCOCC2)[C@H](C(=O)N2CCC[C@H]2C#N)C1 [Example 44, (S)-1-[(1R,2R,4S)-4-(4-Chloro-2-methyl-benzenesulfonyl)-2-(morpholine-4-carbonyl)-cyclopentanecarbonyl]-pyrrolidine-2-carbonitrile]
0.1	Cc1cc(Cl)ccc1S(=O)(=O)[C@@H]1C[C@@H](C(=O)NC2(C#N)CCN(C)CC2)[C@H](C(=O)N2CCOCC2)C1 [Example 45, (1R,2R,4R)-4-(4-Chloro-2-methyl-benzenesulfonyl)-2-(morpholine-4-carbonyl)-cyclopentanecarboxylic acid (4-cyano-1-methyl-piperidin-4-yl)-amide formiate]
